In patent US6339160B1 (priority 1997, dated 2002) one finds IC50 and INHIBITION data, which are given here for 6 molecules.

For assay [1], the target named is Adamalysin II (Crotalus adamanteus, UniProt P34179). As to the kind of experiment: biochemical.
For assay [2], the target named is T1, Collagenase from neutrophiles (MMP-8) (Homo sapiens, UniProt P22894).
T1 construct: G. Murphy (Strangeways Labs., Cambridge, UK); host or cells: human cell cultures
Kind of assay: Inhibition of human enzyme Collagenase from neutrophiles (MMP-8), fluorescent substrate. The assay is classed as biochemical. To be noted: expressed qualitatively; enzyme activated with p-aminomercuryacetate. The protocol:
(§1) The snythetized compounds were also tested on the enzyme of human orgin Gelatinase A, known also as MMP-2 (Matrix Metalloproteinase n. 2). The pure enzyme, extracted from human cultures and obtained from Pro. G. Murphy (Strangeways Labs., Cambridge, UK), was first activated with p-amino-mercuryacetate, and proteolytic activity was evidentiated with the use of an artificial fluorescent substratum MCA-PRO-LEU-GLY-LEU-DPA-ALA-ARG-NH2 (Strangeways Labs.), in spectrofluorimeter Perkin Elmer L 50B fixed at 328 nm for excitation and 393 nm for emission. To test inhibitory activity, synthetized compounds were incubated for 3 hours at room temperature in the presence of the enzyme, before adding the substratum.
The new synthetized derivatives were also tested on another zinc-dependent metalloproteinase of human orgin: the Collagenase from neutrophiles, also known as MMP-8 (Matrix Metalloproteinase N. 8). The pure enzyme extracted from human cell cultures and obtained from Prof. G. Murphy (Strangeways Labs., Cambridge, UK), was activated with p-aminomercuryacetate (2 hours at 37° C.), and enzymatic activity was followed by the spectrofluorimeter in the same way as described in the previous chapter.

Assay [3] addresses T2, Gelatinase A (MMP-2) (Homo sapiens, UniProt P08253).
T2 construct: G. Murphy (Strangeways Labs., Cambridge, UK); host or cells: human cultures
T2 sequence (P08253 110-660): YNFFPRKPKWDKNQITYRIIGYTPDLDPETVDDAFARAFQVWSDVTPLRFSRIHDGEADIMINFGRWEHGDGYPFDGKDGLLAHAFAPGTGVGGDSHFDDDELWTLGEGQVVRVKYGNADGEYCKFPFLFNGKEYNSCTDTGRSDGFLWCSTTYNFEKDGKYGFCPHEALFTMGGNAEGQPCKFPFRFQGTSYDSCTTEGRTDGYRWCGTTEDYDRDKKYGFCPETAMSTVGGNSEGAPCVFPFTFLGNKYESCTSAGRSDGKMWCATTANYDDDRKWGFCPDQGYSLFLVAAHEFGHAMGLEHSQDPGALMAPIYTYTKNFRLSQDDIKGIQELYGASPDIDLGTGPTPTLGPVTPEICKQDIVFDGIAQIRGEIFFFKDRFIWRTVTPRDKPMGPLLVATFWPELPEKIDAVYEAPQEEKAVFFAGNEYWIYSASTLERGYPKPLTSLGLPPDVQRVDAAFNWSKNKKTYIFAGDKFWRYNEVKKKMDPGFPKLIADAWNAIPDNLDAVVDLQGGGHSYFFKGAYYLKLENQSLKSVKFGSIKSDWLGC
Kind of assay: Inhibition of the human enzyme Gelatinase A (MMP-2), fluorescent substrate. The assay is classed as biochemical. To be noted: expressed qualitatively; compounds incubated 3 hours at room temperature with enzyme before substrate. The protocol:
as §1

T1 sequence (P22894 101-467): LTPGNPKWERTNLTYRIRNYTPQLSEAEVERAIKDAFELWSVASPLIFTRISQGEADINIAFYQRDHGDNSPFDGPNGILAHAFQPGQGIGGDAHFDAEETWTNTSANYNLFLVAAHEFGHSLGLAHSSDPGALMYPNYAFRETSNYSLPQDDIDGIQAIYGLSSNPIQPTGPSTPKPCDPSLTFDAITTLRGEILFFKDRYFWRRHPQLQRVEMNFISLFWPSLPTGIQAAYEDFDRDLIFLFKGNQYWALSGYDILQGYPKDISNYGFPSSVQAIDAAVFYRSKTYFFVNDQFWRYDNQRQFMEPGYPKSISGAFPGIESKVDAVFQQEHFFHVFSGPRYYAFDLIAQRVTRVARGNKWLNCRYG
Adamalysin II, sequence (P34179 whole entry, looked up): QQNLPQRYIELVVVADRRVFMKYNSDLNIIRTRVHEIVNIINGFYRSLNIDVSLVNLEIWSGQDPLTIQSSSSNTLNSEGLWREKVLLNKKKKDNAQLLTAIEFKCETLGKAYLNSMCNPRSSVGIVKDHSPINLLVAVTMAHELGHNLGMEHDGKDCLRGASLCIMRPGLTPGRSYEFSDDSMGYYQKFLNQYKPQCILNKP

As a reminder, the IC50 is the point on the concentration scale where inhibition reaches its midpoint. A high value points to weaker potency. Molecule `CCOP(=O)(OCC)C(Cc1c[nH]c2ccccc12)NC(=O)[C@H](CC(C)C)NC(=O)c1ccco1` (stereo partly drawn) [Compound n.3a, N-[(furan-2-yl)carbonyl]-L-leucyne-(1)-phosphotryptophan diethylester] yielded an IC50 in assay [1] of 400 nM. Moreover, the INHIBITION entry in assay [2] and in assay [3] was “Fair” in each case.
With `CCOP(=O)(OCC)C(Cc1c[nH]c2ccccc12)NC(=O)[C@H](CC(C)C)NC(=O)c1ccc[nH]1` (stereo partly drawn) [Compound n.3b, N-[(Pyrrol-2-yl)carbonyl]-L-leucyl-(1)-phosphotryptophan diethylester], the IC50 in assay [1] was found to be 220 nM. In addition, the INHIBITION result in assay [2] and in assay [3] was “Good” throughout.
Consider `CCOP(=O)(OCC)C(Cc1c[nH]c2ccccc12)NC(=O)[C@H](CC(C)C)NC(=O)[C@@H]1CCCN1C(=O)OCc1ccccc1` (stereo partly drawn) [Compound n.3c, N-benzyloxycarbonyl-L-pyrolyl-L-eucyl-(1)-phosphtryptophan diethylester], for which, in assay [1], the IC50 is 22000 nM. Also, the INHIBITION result in assay [2] and in assay [3] was “Good” each time.
The molecule `CCOP(=O)(OCC)C(Cc1c[nH]c2ccccc12)NC(=O)[C@H](CC(C)C)NC(=O)[C@@H]1CCC(=O)O1` (stereo partly drawn) [Compound n.3e, N-{[(S)-(5-oxo-tetrahydrofuran-2-yl)carbonyl]}-L-leucyl-(1)-phosphotryptophan diethylester] displayed an IC50 in assay [1] of 550 nM. The INHIBITION entry in assay [2] and in assay [3] was “Fair” throughout.
In turn, `CCOP(=O)(OCC)C(Cc1c[nH]c2ccccc12)NC(=O)[C@H](CC(C)C)NC(=O)[C@@H]1CSC(=O)N1` (stereo partly drawn) [Compound n.3f, N-{[(R)-(2-oxo-thiazolidine-4-yl)carbonyl]}-L-leucyl-(1)-phosphotryptophan diethylester] came in with an IC50 in assay [1] of 1000 nM. Moreover, the INHIBITION result in assay [2] is “Good”; in assay [3] it was “Fair”.
For `CC(C)C[C@H](NC(=O)c1ccco1)C(=O)NC(Cc1c[nH]c2ccccc12)P(=O)(OCc1ccccc1)OCc1ccccc1` (stereo partly drawn) [Compound n.9, N-[(Furan-2-yl)carbonyl]-L-leucyl-(1)-phosphotryptophan dibenzylester] the same measures were 7200 nM, “Fair” and “None”.
